According to patent US4309559A, “Sulphonamides useful as pesticides” (FBC Limited, priority 1977, dated 1982):

Tests used:
Assay type in all cases: in vivo
Barley [1] = experiment: Soil incorporation (I), barley; conditions: 21 days, 0=no effect, 100=complete suppression
Description: (§1) Each of the compounds listed below was formulated as: […]
(§2) (I) an attaclay/sand dust and incorporated in John Innes I potting compost at a rate equivalent to 6.5 and 3.25 parts per million weight/volume of active ingredient to soil and placed in anodised aluminium pans, 19 cm long×9.5 cm wide×5.0 cm high. This is approximately equivalent to a surface application of 2.8 and 1.4 kg active ingredient per hectare cultivated to a depth of 5 cm. Seeds of the species listed below were sown in the treated soil, one species per pan, watered and placed in a controlled environment room (22° C.; 65-85% relative humidity and 14 hours artificial illumination at 17,000 lux) for 21 days.
(§3) The plants were then visually assessed for any growth regulatory or herbicidal effects. All differences from an untreated control were scored on a scale from 0-100, where 0 signifies no effect and 100 signifies complete suppression.
(§4) The results are shown in the following table where I stands for soil incorporation and II for surface spray.

[2] = tested on: Wheat (Triticum aestivum); experiment: Post-emergence foliar spray of monocotyledons, wheat; conditions: foliar spray 2.8 kg/ha, 14 days, 0=no effect, 100=complete kill
Experimental: (§5) Seeds of the monocotyledon species listed below were sown in anodised aluminium pans, 19 cm long×9.5 cm wide×5.0 cm deep, containing John Innes I potting compost. They were then watered and placed in a controlled environment room (22° C.; 65-85% relative humidity; 14 hours per day artificial illumination at 17,000 lux). 14 days after sowing, the seedlings were given a foliar spray of the compound of Example 44, formulated as an aqueous suspension together with 2000 ppm of the wetting agent Lissapol NX. The dosage rate was adjusted to be 2.8 kg active ingredient in 450 liters per hectare. After a further 14 days in the controlled environment room, the plants were visually assessed for any growth regulatory or herbicidal effect. All differences from an untreated control were scored on a scale from 0-100 where 0 signifies no effect and 100 signifies complete kill.
(§6) The compounds listed below were tested according to the procedure of Example 66 but including rice (Oryza sativa) as an additional test species.

Rice [3] = experiment: Soil incorporation (I), rice; conditions: 21 days, 0=no effect, 100=complete suppression
Description: as §1, §2, §3, §4

Carrot [4] = experiment: Soil incorporation (I), carrot; conditions: 21 days, 0=no effect, 100=complete suppression
Description: as §1, §2, §3, §4

Cotton [5] = experiment: Soil incorporation (I), cotton; conditions: 21 days, 0=no effect, 100=complete suppression
Description: as §1, §2, §3, §4

Barnyard Grass [6] = experiment: Soil incorporation (I), barnyard grass; conditions: 21 days, 0=no effect, 100=complete suppression
Description: as §1, §2, §3, §4

Cotton [7] = experiment: Surface spray (II), cotton; conditions: 21 days, 0=no effect, 100=complete suppression
Description: as §1
(§7) (II) An aqueous suspension together with 1000 ppm of the wetting agent Lissapol NX. The surfaces of an additional set of pans with seeds already sown were then sprayed with 2.8 or 1.4 kg/ha in 450 liters/hectare, and the pans kept in the controlled environment room for 21 days.
as §3, §4

rice (Oryza sativa) = experiment: Post-emergence foliar spray of monocotyledons, rice; conditions: foliar spray 2.8 kg/ha, 14 days, 0=no effect, 100=complete kill
Experimental: as §5, §6

Tomato [8] = experiment: Soil incorporation (I), tomato; conditions: 21 days, 0=no effect, 100=complete suppression
Description: as §1, §2, §3, §4

Barley (Hordeum vulgare) = experiment: Post-emergence foliar spray of monocotyledons, barley; conditions: foliar spray 2.8 kg/ha, 14 days, 0=no effect, 100=complete kill
Experimental: as §5, §6

Tomato [9] = experiment: Surface spray (II), tomato; conditions: 21 days, 0=no effect, 100=complete suppression
Description: as §1, §7, §3, §4

Barley [10] = experiment: Surface spray (II), barley; conditions: 21 days, 0=no effect, 100=complete suppression
Description: as §1, §7, §3, §4

Wheat [11] = experiment: Soil incorporation (I), wheat; conditions: 21 days, 0=no effect, 100=complete suppression
Description: as §1, §2, §3, §4

Barnyard Grass [12] = experiment: Surface spray (II), barnyard grass; conditions: 21 days, 0=no effect, 100=complete suppression
Description: as §1, §7, §3, §4

[13] = tested on: Barnyardgrass (Echinochloa crus-galli); experiment: Post-emergence foliar spray of monocotyledons, barnyardgrass; conditions: foliar spray 2.8 kg/ha, 14 days, 0=no effect, 100=complete kill
Experimental: as §5, §6

Carrot [14] = experiment: Surface spray (II), carrot; conditions: 21 days, 0=no effect, 100=complete suppression
Description: as §1, §7, §3, §4

Rice [15] = experiment: Surface spray (II), rice; conditions: 21 days, 0=no effect, 100=complete suppression
Description: as §1, §7, §3, §4

Wheat [16] = experiment: Surface spray (II), wheat; conditions: 21 days, 0=no effect, 100=complete suppression
Description: as §1, §7, §3, §4

Row | SMILES | growth regulatory or herbicidal effect score (Barley [1]; I soil incorporation 3.25 ppm) | growth regulatory or herbicidal effect score (Barley [1]; I soil incorporation 6.5 ppm) | growth regulatory or herbicidal effect score [2] | growth regulatory or herbicidal effect score (Rice [3]; I soil incorporation 3.25 ppm) | growth regulatory or herbicidal effect score (Rice [3]; I soil incorporation 6.5 ppm) | growth regulatory or herbicidal effect score (Cotton [5]; I soil incorporation 3.25 ppm) | growth regulatory or herbicidal effect score (Cotton [5]; I soil incorporation 6.5 ppm) | growth regulatory or herbicidal effect score (Barnyard Grass [6]; I soil incorporation 3.25 ppm) | growth regulatory or herbicidal effect score (Barnyard Grass [6]; I soil incorporation 6.5 ppm) | growth regulatory or herbicidal effect score (Cotton [7]; row 3.25 ppm (1.4 kg/ha)) | growth regulatory or herbicidal effect score (Cotton [7]; row 6.5 ppm (2.8 kg/ha)) | growth regulatory or herbicidal effect score (rice (Oryza sativa)) | growth regulatory or herbicidal effect score (Tomato [8]; I soil incorporation 3.25 ppm) | growth regulatory or herbicidal effect score (Tomato [8]; I soil incorporation 6.5 ppm) | growth regulatory or herbicidal effect score (Barley (Hordeum vulgare)) | growth regulatory or herbicidal effect score (Tomato [9]; row 3.25 ppm (1.4 kg/ha)) | growth regulatory or herbicidal effect score (Tomato [9]; row 6.5 ppm (2.8 kg/ha)) | growth regulatory or herbicidal effect score (Barley [10]; row 3.25 ppm (1.4 kg/ha)) | growth regulatory or herbicidal effect score (Barley [10]; row 6.5 ppm (2.8 kg/ha)) | growth regulatory or herbicidal effect score (Wheat [11]; I soil incorporation 3.25 ppm) | further results
1 | CS(=O)(=O)N(CC(N)=S)c1ccc(Cl)c(Cl)c1 [Example 85, N-(thiocarbamoylmethyl)-3,4-dichloromethanesulphonanilide] | 0 | 0 | 0 | 0 | 0 | 0 | 0 | 90 | 90 | 0 | 0 | 0 | 0 | 0 | 0 | 0 | 0 | 0 | 0 | 0 | growth regulatory or herbicidal effect score (Carrot [4]; I soil incorporation 3.25 ppm): 0; growth regulatory or herbicidal effect score (Carrot [4]; I soil incorporation 6.5 ppm): 0; growth regulatory or herbicidal effect score (Wheat [11]; I soil incorporation 6.5 ppm): 0; growth regulatory or herbicidal effect score (Barnyard Grass [12]; row 3.25 ppm (1.4 kg/ha)): 90; growth regulatory or herbicidal effect score (Barnyard Grass [12]; row 6.5 ppm (2.8 kg/ha)): 100; growth regulatory or herbicidal effect score [13]: 90; growth regulatory or herbicidal effect score (Carrot [14]; row 3.25 ppm (1.4 kg/ha)): 0; growth regulatory or herbicidal effect score (Carrot [14]; row 6.5 ppm (2.8 kg/ha)): 0; growth regulatory or herbicidal effect score (Rice [15]; row 3.25 ppm (1.4 kg/ha)): 0; growth regulatory or herbicidal effect score (Rice [15]; row 6.5 ppm (2.8 kg/ha)): 0; growth regulatory or herbicidal effect score (Wheat [16]; row 3.25 ppm (1.4 kg/ha)): 0; growth regulatory or herbicidal effect score (Wheat [16]; row 6.5 ppm (2.8 kg/ha)): 0
2 | Cc1ccc(N(CC#N)S(C)(=O)=O)cc1Cl [Example 131] | 0 | 0 | 5 | 0 | 0 | 0 | 0 | 50 | 70 | 0 | 0 | 0 | 0 | 0 | 10 | 0 | 0 | 0 | 0 | 0 | growth regulatory or herbicidal effect score (Carrot [4]; I soil incorporation 3.25 ppm): 0; growth regulatory or herbicidal effect score (Carrot [4]; I soil incorporation 6.5 ppm): 0; growth regulatory or herbicidal effect score (Wheat [11]; I soil incorporation 6.5 ppm): 0; growth regulatory or herbicidal effect score (Barnyard Grass [12]; row 3.25 ppm (1.4 kg/ha)): 60; growth regulatory or herbicidal effect score (Barnyard Grass [12]; row 6.5 ppm (2.8 kg/ha)): 80; growth regulatory or herbicidal effect score [13]: 90; growth regulatory or herbicidal effect score (Carrot [14]; row 3.25 ppm (1.4 kg/ha)): 0; growth regulatory or herbicidal effect score (Carrot [14]; row 6.5 ppm (2.8 kg/ha)): 0; growth regulatory or herbicidal effect score (Rice [15]; row 3.25 ppm (1.4 kg/ha)): 0; growth regulatory or herbicidal effect score (Rice [15]; row 6.5 ppm (2.8 kg/ha)): 0; growth regulatory or herbicidal effect score (Wheat [16]; row 3.25 ppm (1.4 kg/ha)): 0; growth regulatory or herbicidal effect score (Wheat [16]; row 6.5 ppm (2.8 kg/ha)): 0
3 | CCS(=O)(=O)N(CC(N)=S)c1ccc(Cl)c(Cl)c1 [Example 156] | 0 | 0 | 0 | 0 | 0 | 0 | 0 | 70 | 90 | 0 | 0 | 0 | 0 | 0 | 0 | 0 | 0 | 0 | 0 | 0 | growth regulatory or herbicidal effect score (Wheat [11]; I soil incorporation 6.5 ppm): 0; growth regulatory or herbicidal effect score (Barnyard Grass [12]; row 3.25 ppm (1.4 kg/ha)): 80; growth regulatory or herbicidal effect score (Barnyard Grass [12]; row 6.5 ppm (2.8 kg/ha)): 100; growth regulatory or herbicidal effect score [13]: 90; growth regulatory or herbicidal effect score (Rice [15]; row 3.25 ppm (1.4 kg/ha)): 0; growth regulatory or herbicidal effect score (Rice [15]; row 6.5 ppm (2.8 kg/ha)): 0; growth regulatory or herbicidal effect score (Wheat [16]; row 3.25 ppm (1.4 kg/ha)): 0; growth regulatory or herbicidal effect score (Wheat [16]; row 6.5 ppm (2.8 kg/ha)): 0
4 | Cc1ccc(N(CC(N)=S)S(C)(=O)=O)cc1Cl [Example 150] | 0 | 0 | 0 | 0 | 0 | 0 | 0 | 60 | 60 | 0 | 0 | 0 | 0 | 0 | 0 | 0 | 0 | 0 | 0 | 0 | growth regulatory or herbicidal effect score (Wheat [11]; I soil incorporation 6.5 ppm): 0; growth regulatory or herbicidal effect score (Barnyard Grass [12]; row 3.25 ppm (1.4 kg/ha)): 50; growth regulatory or herbicidal effect score (Barnyard Grass [12]; row 6.5 ppm (2.8 kg/ha)): 70; growth regulatory or herbicidal effect score [13]: 80; growth regulatory or herbicidal effect score (Rice [15]; row 3.25 ppm (1.4 kg/ha)): 0; growth regulatory or herbicidal effect score (Rice [15]; row 6.5 ppm (2.8 kg/ha)): 0; growth regulatory or herbicidal effect score (Wheat [16]; row 3.25 ppm (1.4 kg/ha)): 0; growth regulatory or herbicidal effect score (Wheat [16]; row 6.5 ppm (2.8 kg/ha)): 0
